Where two headings read alike, the source gives them in different places.
What was measured:
[1] = Cytotoxicity assay against rat skeletal myoblasts (L6 cell line); format: cell-based
Procedure: (§1) In vitro biological activity against Trypanosoma brucei rhodesiense (bloodstream trypomastigotes, STIB 900 strain), Plasmodium falciparum (intraerythrocytic form, NF54 strain) and cytotoxicity assay against rat skeletal myoblasts (L6 cell line) were carried out at the Swiss Tropical and Public Health Institute (Swiss TPH, Allschwil, Switzerland) in accordance with the established standard procedures, in exactly the same manner and with the same cell lines as described recently.

[2] = test system: Trypanosoma brucei rhodesiense (Tbr), STIB 900 strain; assay: In vitro activity against Trypanosoma brucei rhodesiense (bloodstream trypomastigotes, STIB 900 strain); format: cell-based
Procedure: as §1

[3] = test system: Plasmodium falciparum (Pf), NF54 strain; assay: In vitro activity against Plasmodium falciparum (intraerythrocytic form, NF54 strain); format: cell-based; settings: for IC50: Plasmodium falciparum
Procedure: as §1

[4] = test system: Plasmodium falciparum (Pf), NF54 strain; parameters: method as in PMID 40076324; settings: separately tested in a recent study; cited from earlier work
[5] = test system: Trypanosoma brucei rhodesiense (Tbr), STIB 900 strain; parameters: method as in PMID 40076324; settings: separately tested in a recent study; cited from earlier work
[6] = Trypanosoma brucei rhodesiense, mean of two separate IC50 determinations ± absolute deviation, compounds tested as bis- or mono-trifluoroacetates, read-out: Tbr IC50
[7] = NF54, mean of two separate IC50 determinations ± absolute deviation, compounds tested as bis- or mono-trifluoroacetates, read-out: Pf IC50

| Structure (SMILES) | IC50 [2, 6] [µM] | IC50 [3, 7] [µM] | also measured |
| --- | --- | --- | --- |
| CN[C@H]1[C@H](O)C[C@]23C[C@]24CC[C@]2(C)[C@@H]([C@H](C)N(C)C)CC[C@@]2(C)[C@@H]4CC[C@H]3C1(C)C [Compound 1, cycloprotobuxoline-C] | 6.7 ± 3.3 | 28 ± 0.7 | IC50 [1]: > 100 µM |
| CN[C@H]1[C@H](O)C[C@]23C[C@]24CC[C@]2(C)[C@@H]([C@H](C)N(C)C)CC[C@@]2(C)[C@@H]4CC[C@H]3[C@]1(C)COC(=O)c1cc(OC)c(OC)c(OC)c1 [Compound 5, 29-trimethoxybenzoyloxy cycloprotobuxoline-C] | 1.6 ± 0.7 | 0.5 | IC50 ([3]; NF54, isolated compounds, tested as trifluoroacetate salts, molar IC50 calculated with mass of the salt, read-out: IC50 against Pf (antiplasmodial activity)): < 1 µM |
| CN[C@@H](C)[C@H]1CC[C@@]2(C)[C@@H]3C=C[C@H]4C(C)(C)[C@@H](N(C)C)CC[C@@]45C[C@@]35CC[C@]12C [Compound 12, deoxycyclovirobuxeine-B] | 0.8 ± 0.3 | 5.4 ± 1.2 | IC50 ([2]; Trypanosoma brucei, isolated compounds, tested as trifluoroacetate salts, molar IC50 calculated with mass of the salt, read-out: IC50 against Tbr (antitrypanosomal activity)): < 1 µM |
| CN[C@@H](C)[C@H]1CC[C@@]2(C)[C@@H]3CC[C@H]4[C@]5(C)COCN(C)[C@H]5CC[C@@]45C[C@@]35CC[C@]12C [Compound 15, N20-demethyl deoxycyclobuxoxazine-A] | 6.6 ± 3.5 | 5.8 ± 0.4 | – |
| CN[C@H]1CC[C@]23C[C@]24CC[C@]2(C)[C@@H](C(C)=O)[C@H](OC)C[C@@]2(C)[C@@H]4CC[C@H]3C1 [Compound 16, obtusibuxeine-A] | 22 ± 1.7 | 13 ± 1.4 | IC50 [1]: 45 ± 5.1 µM; SI Tbr (selectivity index) ([2]; cytotoxic IC50 (L6) / IC50 Tbr): 2; SI Pf (selectivity index) ([3]; cytotoxic IC50 (L6) / IC50 Pf): 3 |
| CC(=O)OC1C2OC3(C=CC(NC(=O)c4ccccc4)C(C)(C)C13)CC1=CCC3(C)C(C(C)N(C)C)C(O)CC3(C)C12 (stereo not drawn) [Compound 21, obtusiepoxamine-A] | 2.2 ± 0.2 | 10 ± 1.1 | – |
| CC(=O)O[C@H]1[C@@H](O)[C@@H]2C(=CC[C@]3(C)[C@@H]([C@H](C)N(C)C)CC[C@@]23C)CC2=CC[C@H](NC(=O)c3ccccc3)C(C)(C)[C@@H]21 [Compound 23, 16-deoxyobtusidienolamine-A] | 6.5 ± 0.4 | 30 ± 6.5 | – |
| CCN(CC)CCCC(C)Nc1ccnc2cc(Cl)ccc12 (stereo not drawn) [chloroquine, reference compound] | – | – | IC50 ([3]; NF54, read-out: IC50 Pf): 2 ng/mL; IC50 ([3]; NF54, read-out: Pf IC50): 0.012 µM |
| Nc1nc(N)nc(Nc2ccc([As]3SCC(CO)S3)cc2)n1 (stereo not drawn) [melarsoprol, reference compound] | – | – | IC50 ([2]; Trypanosoma brucei, read-out: IC50 Tbr): 4 ng/mL; IC50 ([2]; Trypanosoma brucei, read-out: Tbr IC50): 0.013 ± 0.001 µM |
| COc1cc([C@@H]2c3cc4c(cc3[C@H](O)[C@H]3COC(=O)[C@H]23)OCO4)cc(OC)c1OC [podophyllotoxin, reference compound] | – | – | IC50 ([1]; Table 1, crude extracts and acid-base fractions, mean of two determinations ± absolute deviation, read-out: IC50 Cytotox. L6): 7 ± 2 ng/mL |
| O=C([O-])C(F)(F)F.[Na+] [sodium trifluoroacetate] | – | – | activity against the target parasites (Pf) [4]: inactive; activity against the target parasites (Tbr) [5]: inactive |
